Data on 5 compounds can be found in article PMC8264259, “A Novel Ruthenium(II) Complex With Lapachol Induces G2/M Phase Arrest Through Aurora-B Kinase Down-Regulation and ROS-Mediated Apoptosis in Human Prostate Adenocarcinoma Cells” (Frontiers in Oncology, 2021).

Structures can show the parent of a compound that is named as a salt.

On the set-up of data set [1]: method as in PMID 30776556. The following applies: previously tested, not tested in the present work; read-out: IC50 (weak cytotoxicity); cited from earlier work.
Data set [2] relates to PNT-2 (human prostate epithelial cells). The experiment in a line: Alamar blue cytotoxicity assay, PNT-2 non-cancer cells. Type of data set: cell-based. The following applies: mean ± S.E.M. The text has this: (§1) Human lung carcinoma (A549, ATCC® CCL-185™), human hepatocellular carcinoma (HepG2, ATCC® HB-8065™), and human breast adenocarcinoma (MDA-MB-231, ATCC® HTB-26™) were obtained from American Type Cell Collection (ATCC). Human melanoma (A-375, BCRJ-0278), Human colorectal adenocarcinoma (Caco-2, BCRJ 0059), human prostate adenocarcinoma (DU-145, BCRJ-0078, and PC-3, BCRJ-0269), human mouth fibroblast (FGH, BCRJ-0089), and human prostate epithelial cells (PNT-2, BCRJ-0366) were obtained from Rio de Janeiro Cells Bank (BCRJ). The cells A549, A-375, Caco-2, DU-145, HepG2, MDA-MB-231, and FGH were cultured in Dulbecco’s Modified Eagle’s Medium (DMEM, Gibco-Invitrogen®), PC-3 and PNT-2 cells were grown in Roswell Park Memorial Institute Medium (RPMI-1640, Gibco-Invitrogen®). Both mediums were supplemented according to the needs of each lineage, as recommended by its cell banks with 2 mM L-glutamine (Gibco-Invitrogen®), 10% or 20% fetal bovine serum (Gibco-Invitrogen®), 1% antibiotic-antimycotic solution (5 mg/ml penicillin, 5 mg/ml streptomycin, and 10 mg/ml neomycin, Gibco-Invitrogen®), and 3.7 g/L of NaHCO3 (Sigma-Aldrich). All cell lines were cultured in flasks at 37°C in 5% CO2 and 96% of relative humidity according to the procedures proposed by ([31]), and a mycoplasma stain kit (Sigma-Aldrich) was used to confirm the use of cells devoid of contamination. The assays were conducted between the third and the seventh-cell passage with sub-cultures every 3 to 4 days to maintain exponential growth. The cell viability was checked using the trypan blue dye exclusion assay for all experiments where over 95% of the cells were viable at the beginning of the tests.
(§2) The in vitro antiproliferative activity was quantified using the Alamar blue® assay, according to the method reported by ([32]). Cells were seeded in 96-well plates for all experiments (1.5 × 10^4 cells/well). After 24 h, the complexes were dissolved in DMSO and added to each well and incubated for 24 h. Dilutions of the complexes were prepared to obtain concentrations ranging from 0.3 to 100 μM. […] DMSO (0.1% v/v) was used as the vehicle control. Following 24 h of incubation, 50 μl of Alamar blue® (resazurin at 0.01% w/v, Sigma-Aldrich) was added to each well, and the plates were incubated, at 37°C, in the dark. Fluorescence reading was performed in a Synergy H1 Fluorescence Spectrophotometer (BioTek®), using excitation and emission filters at wavelengths of 560 and 590 nm, respectively. The fluorescence intensity was measured in arbitrary fluorescence units (AFU) and the AFU of untreated cells (CTL) was considered 100%. The cytotoxic effects of the compounds were estimated in terms of cell proliferation inhibition (%) and expressed as half-maximal inhibitory concentration (IC50). The cell proliferation inhibition percentage of cells exposed to treatments was calculated following: % Inhibition = 100 − (AFU of treated well/AFU of control well) × 100). The IC50 values were calculated from the cell proliferation inhibition percentage by nonlinear regression method using CompusSyn® Software.
A general note: Resazurin is reduced to fluorescent resorufin, in cell work by metabolically active cells.

Data set [3] deals with HepG2 (human hepatocellular carcinoma). The data set can be described thus: Alamar blue cytotoxicity assay, HepG2. The following applies: for IC50: HepG2, Alamar blue, 24-h incubation, mean ± S.E.M. Type of data set: cell-based.
Excerpt: as §1, §2

Data set [4] deals with A-375 (human malignant melanoma). The experiment in a line: Alamar blue cytotoxicity assay, A-375. The following applies: for IC50: A-375, Alamar blue, 24-h incubation, mean ± S.E.M. The class given is cell-based.
Excerpt: as §1, §2

Data set [5] relates to FGH (human mouth fibroblast). The experiment in a line: Alamar blue cytotoxicity assay, FGH non-cancer cells. The class given is cell-based. The note with it: 24-h incubation, mean ± S.E.M.
Excerpt: as §1, §2

Data set [6] concerns A549 (human lung carcinoma). The data set can be described thus: Alamar blue cytotoxicity assay, A549. The class given is cell-based. The note with it: for IC50: A549, Alamar blue, 24-h incubation, mean ± S.E.M.
Excerpt: as §1, §2

Data set [7] relates to DU-145 cells. The experiment in a line: Clonogenic assay. The note with it: 24 h treatment, colonies after 7 days. The class given is cell-based, human. As for the experimental part:
The clonogenic assay was performed in accordance with the guidelines of ([34]). […] DMSO (0.1% v/v) was used as the vehicle control. After 24 h, the cells were washed with PBS (Gibco-Invitrogen®) and harvested by trypsinization. Cells were counted using a Neubauer chamber and replated then on cell culture dishes of 21.5 cm^2 in a density of 200 cells per culture dish for each treatment in triplicate. After 7 days, cells were fixed in ice-cold methanol: acetic acid: distilled water (1:1:8), air-dried, and stained with crystal violet (0.5% w/v, Sigma-Aldrich) for 20 min. Colonies with at least 50 cells were counted. Plating efficiency (PE) of DU-145 cells was calculated by the ratio of the number of colonies observed after 7 days of incubation to the number of cells seeded (two hundred). The average of colonies in control was considered as 100%, and the number of colonies that arise after treatment of cells is called the surviving fraction (SF), obtained by:
SF = Numberofcoloniescountedineachtreatment/Numberofcoloniescountedincontrol x PE × 100

In data set [8] the test system is MDA-MB-231 (human breast adenocarcinoma). The data set can be described thus: Alamar blue cytotoxicity assay, MDA-MB-231. The following applies: for IC50: MDA-MB-231, Alamar blue, 24-h incubation, mean ± S.E.M. The class given is cell-based.
Excerpt: as §1, §2

Data set [9] deals with PC-3 (human prostate adenocarcinoma). The data set can be described thus: Alamar blue cytotoxicity assay, PC-3. The class given is cell-based. The following applies: for IC50: PC-3, Alamar blue, 24-h incubation, mean ± S.E.M.
Excerpt: as §1, §2

The test system of data set [10] is DU-145 (human prostate adenocarcinoma). The experiment in a line: Alamar blue cytotoxicity assay, DU-145. Type of data set: cell-based. The following applies: for IC50: DU-145, Alamar blue, 24-h incubation, mean ± S.E.M.
Excerpt: as §1, §2

Data set [11] relates to Caco-2 (human colorectal adenocarcinoma). The experiment in a line: Alamar blue cytotoxicity assay, Caco-2. The class given is cell-based. The following applies: for IC50: Homo sapiens, Caco-2, Alamar blue, 24-h incubation, mean ± S.E.M.
Excerpt: as §1, §2

The test system of data set [12] is DU-145 MCTSs. The experiment in a line: 3D multicellular tumor spheroids (MCTSs) culture. The class given is cell-based, human. The following applies: 3D spheroids, 24 h, Alamar blue; read-out: IC50 against the DU-145 MCTSs. As for the experimental part: Multicellular tumor spheroids (MCTSs) were obtained according to the method reported by ([33]). Briefly, 200 μl of a solution of DU-145 cells (2.0 × 10^3 cells/well) were inserted in agarose-coated 96-well plates (1.5% w/v) and cultured in complete medium plus 3% Matrigel® (Corning). DU-145-MCTSs with stable structures had formed after five days. […] Negative control received the vehicle (DMSO 0.1% v/v) that was used for diluting the compounds tested. Finally, the MCTS proliferation inhibition (%) and IC50 were determined by Alamar blue® assay as described above. To investigate morphological changes other MCTSs were treated with 0.25, 0.5, 1.0, 1.5, and 2.0 μM of complex (2) and examined for 7 days. Spheroid integrity and diameter of MCTSs were analyzed by phase-contrast microscopy (Inverted Trinocular Microscope Opton TNB-O5T-PL) using AxioVision LE software (Carl Zeiss, Germany).

For data set [13], the system named is DU-145 cells. The experiment in a line: Annexin-V/PI staining assay (flow cytometry). Type of data set: cell-based, human. The note with it: DU-145, 25 μM (~IC50), 24 h. The protocol: The measurement of cell death was performed by the guidelines of ([35]). Detection of apoptotic/necrotic cells was determined by flow cytometry using the Alexa Fluor® 488 Annexin V/PI (Thermo Fischer Scientific), and the analyses were performed according to the manufacturer’s instructions. […] DMSO (0.1% v/v) was used as the vehicle control. Following 24 h of incubation, the cells were collected with Accutase® (Gibco-Invitrogen®), washed with PBS and resuspended in 200 μl of cold annexin-binding buffer. Next, 10 μl of Alexa Fluor® was added to Annexin V (50 μl/ml) staining buffer, and the mixture was incubated in the dark at 4°C for 15 min. Previously, the analyses, 100 μl of PI (2 μg/ml) was added, and then, the fluorescence was measured by flow cytometry in a FACSCanto flow cytometer (BD Biosciences, USA) using the Diva software. Ten thousand events were evaluated per experiment, and cellular debris was omitted from the analysis.
(Flow cytometry measures light scatter and fluorescence of single cells or particles in a stream.)

The mark [14] stands for this setting: Homo sapiens, PNT2, 24-h incubation.

Broadly, the IC50 is the concentration that inhibits the measured activity by half. On to `[Cl][Ru][Cl].c1ccc(P(CP(c2ccccc2)c2ccccc2)c2ccccc2)cc1.c1cnc2c(c1)ccc1cccnc12` [cis-[RuCl2(dppm)(phen)]], for which the IC50 in [1] was above 100 µM.
With `COc1cccc2c1C(=O)c1c(O)c3c(c(O)c1C2=O)C[C@@](O)(C(=O)CO)C[C@@H]3O[C@H]1C[C@H](N)[C@H](O)[C@H](C)O1` [DXR, doxorubicin hydrochloride, reference compound], the IC50 in data set [2] (setting [14]) was found to be 3.2 ± 0.5 µM; in [3] (Homo sapiens), 2.4 ± 0.8 µM; in data set [4] (Homo sapiens), 3.7 ± 0.6 µM; in [5] (Homo sapiens, Fibroblast), 2.6 ± 0.6 µM; in data set [6] (Homo sapiens) it was 1.9 ± 0.4 µM; in data set [8] (Homo sapiens), 2.1 ± 0.7 µM. For the same compound, the IC50 in data set [9] (Homo sapiens) stood at 2.6 ± 0.3 µM; in [10] (Homo sapiens), 2.3 ± 0.5 µM; in data set [11] it was 2100 ± 800 nM. For the same compound, the “Selectivity index (SI)” value in [3] (SI = IC50[FGH]/IC50[HepG2]) came out at 1.1; in data set [3] (SI = IC50[PNT-2]/IC50[HepG2]), 1.3; in [4] (SI = IC50[FGH]/IC50[A-375]), 0.7; in data set [4] (SI = IC50[PNT-2]/IC50[A-375]), 0.9; in data set [6] (SI = IC50[FGH]/IC50[A549]) it was 1.4; in data set [6] (SI = IC50[PNT-2]/IC50[A549]), 1.7. The “Selectivity index (SI)” value in data set [8] (SI = IC50[FGH]/IC50[MDA-MB-231]) was 1.2; in data set [8] (SI = IC50[PNT-2]/IC50[MDA-MB-231]), 1.5; in data set [9] (SI = IC50[FGH]/IC50[PC-3]) it was 1.0; in [9] (SI = IC50[PNT-2]/IC50[PC-3]) it was 1.2; in data set [10] (SI = IC50[FGH]/IC50[DU-145]), 1.1; in data set [10] (SI = IC50[PNT-2]/IC50[DU-145]), 1.4. Besides, the “Selectivity index (SI)” value was determined as 1.2 in [11] (SI = IC50[FGH]/IC50[Caco-2]) and 1.5 in data set [11] (SI = IC50[PNT-2]/IC50[Caco-2]). The “survival fraction (SF)” value in [7] (DU-145, 2.5 μM) was 18.7%.
Take `CC(C)=CCC1=C(O)C(=O)c2ccccc2C1=O` [Lp, 2-hydroxy-3-(3-methylbut-2-en-1-yl)naphthalene-1,4-dione, reference compound]: the IC50 in [2] (setting [14]) was above 100 µM; in [3] (Homo sapiens), above 100 µM; in data set [4] (Homo sapiens) it was above 100 µM; in data set [5] (Homo sapiens, Fibroblast) it was above 100 µM; in [6] (Homo sapiens) it was above 100 µM; in [8] (Homo sapiens), above 100 µM. Besides, the figures for the IC50 in data set [9] (Homo sapiens), in [10] (Homo sapiens) and in [11] were above 100 µM, above 100 µM and above 100000 nM, respectively.
With `[Cl][Ru][Cl].c1ccc(-c2ccccn2)nc1.c1ccc(P(CP(c2ccccc2)c2ccccc2)c2ccccc2)cc1` [cis-[RuCl2(dppm)(bipy)]], the IC50 in [1] is above 100 µM.
Regarding `N.N.[Cl][Pt][Cl]` [CIS, Cisplatin, reference compound], the IC50 in data set [2] (24-h incubation) is 9.5 ± 0.3 µM; in [3], 14.1 ± 0.5 µM; in data set [4], 16.5 ± 2.3 µM; in [5], 11.4 ± 0.5 µM; in data set [6], 11.9 ± 0.6 µM; in data set [12], 62.6 µM. The IC50 in [8] came to 22.1 ± 1.7 µM; in data set [9], 10.8 ± 1.1 µM; in data set [10], 24.3 ± 1.3 µM. Besides, the “survival fraction (SF)” value in data set [7] (DU-145, 25 μM) was 69.1%. The “population of apoptotic cells” value in data set [13] was found to be 19.5%.
